Patent US20080009451A1, “Applications of kidney secreted bone growth factor and pharmaceutical use of flavonol and flavonol glycosides for stimulating the secretion of kidney secreted bone growth factor” (priority 2005, published 2008)
“Also recorded” adds a separate entry of the source.

Experiments:
[1] = test system: MC 3T3 E1 cell (osteoblast); test: Osteoblast proliferation in OK cell conditioned medium (OKM); format: cell-based; conditions: OK cells incubated 24 hours with compound, 80 μl medium on MC 3T3 E1, 3 days
Method: In this example, OK cells were used as the kidney tubular cell. OK cells at 6×10^4ml (3 ml) were added into 6 wells plate and various concentrations of flavonol, flavonol glycosides, apigenin and isokaempferol were applied. At the same time, the control culture medium (CM) with the same condition as above but without cells was prepared. After 24 hours incubation, the medium was collected for osteoblast culture. The OK cell growth was examined as discussed above. In this example, the osteoblast was the MC 3T3 E1 cell. MC 3T3 E1 at 1×10^5/ml (20 μl) was added into 96 wells plate. Additionally, 80 μL of OKM or CM were recruited. After 3 days incubation, the osteoblast growth was examined as discussed above. […] OK cells at 2×10^4/ml (0.1 ml) mixed with various concentrations of kaempferol were incubated in 96 well plate. The medium made of the same condition as above without OK cells was also incubated in the 96 well plates. After 24 hour, the mediums were collected. The OK cell growth was examined. MC 3T3 E1 cells at 1×10^5/ml (20 μl) were applied into 96 well plate along with OKM and CM (80 μl). After 3 days incubation, the cell numbers were examined. The preparation of OKM and CM: OK cells at 6×10^4/ml (3 ml) were incubated in 6 well plates over night. After the medium was removed, the fresh medium with or without 70 nM kaempferol was added. The control medium (CM) was prepared under the same condition, without OK cells. After incubation for 24 hour, all medium were collected for MC 3T3 E1 and HFF cell growth experiments. MC 3T3 E1 and HFF cell at 1×10^5/ml were added (20 μl) into 96 well plates. In addition, 80 μl of OKM, CM and fresh culture medium with and without kaempferol were applied.

[2] = test system: human heart fibroblast (HHF/HFF); test: Fibroblast proliferation in OK cell conditioned medium (OKM); format: cell-based; conditions: OK cells incubated 24 hours with compound; medium on human heart fibroblast; 3 days
Method: In this example, OK cells were used as the kidney tubular cell. OK cells at 6×10^4ml (3 ml) were added into 6 wells plate and various concentrations of flavonol, flavonol glycosides, apigenin and isokaempferol were applied. At the same time, the control culture medium (CM) with the same condition as above but without cells was prepared. After 24 hours incubation, the medium was collected for osteoblast culture. The OK cell growth was examined as discussed above. The preparation of OKM and CM: OK cells at 6×10^4/ml (3 ml) were incubated in 6 well plates over night. After the medium was removed, the fresh medium with or without 70 nM kaempferol was added. The control medium (CM) was prepared under the same condition, without OK cells. After incubation for 24 hour, all medium were collected for MC 3T3 E1 and HFF cell growth experiments. MC 3T3 E1 and HFF cell at 1×10^5/ml were added (20 μl) into 96 well plates. In addition, 80 μl of OKM, CM and fresh culture medium with and without kaempferol were applied.

opossum kidney (OK) cell = test: Renal tubular (OK) cell proliferation, CellTiter 96 at OD570; format: cell-based; conditions: compound added to OK cells, 0-60 nM (0-79 nM) or various concentrations, three days incubation (24 hours in Example 3.2)
Method: Flavonol Increased Renal Tubular Cell Proliferation Ok cells at 1×10^4/ml (0.1 ml) were added into 96 wells plate. Several flavonol ? Fisetin, ? Kaempferol, ? quercetin a ? ? icariin or the control flavonoid (which are not flavonol) such as apigenin and kaempferol-3-methyl ether were added to make the final concentration at 0-60 nM. (0-79 nM)
After three days incubation, the cell growth was examined with CellTiter 96 (Non-Radioactive Cell Proliferation Assay kit) (Promega) at OD570 nm. The higher OD, the higher the numbers of living cells. (FIG. 2.)
OK cell, MC 3T3 E1 and HHF cells at 2×10^4/ml (0.1 ml) were added into 96 well plates, with various concentration of kaempferol was applied. After the cells were cultured for 3 days, cell growth was examined.
Preparation of OKM and CM: OK cells at 2×10^4/ml (0.1 ml) mixed with various concentrations of kaempferol were incubated in 96 well plate. The medium made of the same condition as above without OK cells was also incubated in the 96 well plates. After 24 hour, the mediums were collected. The OK cell growth was examined.

[3] = test system: MC 3T3 E1 cell (osteoblast); test: Direct effect of compound on osteoblast proliferation; format: cell-based; conditions: medium incubated without kidney cells; 70 nM or various concentrations; 3 days
Method: (§1) OK cell, MC 3T3 E1 and HHF cells at 2×10^4/ml (0.1 ml) were added into 96 well plates, with various concentration of kaempferol was applied. After the cells were cultured for 3 days, cell growth was examined. The preparation of OKM and CM: OK cells at 6×10^4/ml (3 ml) were incubated in 6 well plates over night. After the medium was removed, the fresh medium with or without 70 nM kaempferol was added. The control medium (CM) was prepared under the same condition, without OK cells. After incubation for 24 hour, all medium were collected for MC 3T3 E1 and HFF cell growth experiments. MC 3T3 E1 and HFF cell at 1×10^5/ml were added (20 μl) into 96 well plates. In addition, 80 μl of OKM, CM and fresh culture medium with and without kaempferol were applied.

BMP2/4 = BMP2/4 in kaempferol conditioned OKM, immune-precipitation and Western blot; format: cell-based, opossum; conditions: Western blot; not been repeated yet
Description: (§2) Detail of Immune-Precipitation and Detail of Western Blot Used Standard Methods and Anti-BMP 2/4 and 7.

BMPR II = BMPR II on OK cells, immunostain and Western blot; format: cell-based, opossum
Description: BMPR I was not found in OK cells sample, BMPR II was found on OK cell. […] Both FIGS. 6A and 6B indicate that kaempferol increases the quantity of BMPR II on OK cell.

[4] = test system: HHF cells (human heart fibroblast); test: Direct effect of compound on fibroblast proliferation; format: cell-based; conditions: medium incubated without kidney cells; 70 nM kaempferol; 3 days
Method: as §1

P63 = P63 (63 kDa protein) in kaempferol conditioned OKM, over-exposed anti-BMP2/4 Western blot; format: cell-based, opossum; conditions: over-exposed film; not been repeated yet
Description: Detail of Immune-Precipitation and Detail of Western Blot Used Standard Methods and Anti-BMP 2/4 and 7. 3). […] According to the instruction from the manufacture, anti-BMP2/4 antibody may react with BMP8, 9 and 10 or other proteins. The P63 may be BMP 8, 9, 10 or another protein related to the BMP2/4.

[5] = test system: MC 3T3 E1 cell (osteoblast); test: Osteoblast proliferation in human kidney tubular cell (HK-2) conditioned medium (HKM); format: cell-based; conditions: HK-2 cells, 70 nM kaempferol, 24 hours; medium on MC 3T3 E1 for 3 days
Method: Human kidney tubular cells (HK-2) with the concentration at 1×10^5/ml (1 mL) grew in 24 well plate overnight. The cells in the wells were washed by 1 mL of PBS three times. Fresh culture medium (80 μL) without FBS but contained 0 and 70 nM kaempferol were added. The same medium without cells also prepared as above. After the samples were cultured for 24 hours, the medium was collected and named respectively 70 […] 0CM. They were used for osteoblast and fibroblast culture. MC 3T3 E1 and HFF cell at 1×10^5/ml were added (20 μl) into 96 wells plate. In addition, 80 μl of 70 […] 0CM were applied.

BMP7 = BMP7 in kaempferol conditioned OKM, immune-precipitation and Western blot; format: cell-based, opossum; conditions: Western blot; not been repeated yet
Description: as §2

[6] = animal models; cited from earlier work
[7] = acute renal ischemia, unilateral uretheral obstruction, diabetic nephropathy, lupus nephritis models; cited from earlier work

With `O=c1cc(-c2ccc(O)cc2)oc2cc(O)cc(O)c12` [Apigenin, apigenin] the “osteoblast (MC 3T3 E1) proliferation in compound conditioned-OKM compared with control OKM” value (“osteoblast … compared with control OKM” for short) [1] was “did not increase osteoblast proliferation”, the “fibroblast proliferation in compound conditioned-OKM” value (from here on “fibroblast proliferation”) [2] was “do not increase human heard fibroblast proliferation” and the “OK cell proliferation (optic density)” value (opossum kidney (OK) cell) was “did not increase OK cell proliferation”. For the same molecule, the “OK cell proliferation (optic density)” value (opossum kidney (OK) cell; listed as apigenin) was “showed no effect”.

For `O=c1c(O)c(-c2ccc(O)cc2)oc2cc(O)cc(O)c12` [Kaempferol], the “MC 3T3 E1 proliferation in control medium (CM) or fresh medium containing compound” value [3] was “did not promote MC 3T3 E1 and HHF cell proliferation”, the “quantity of BMP2/4 in OKM” value (BMP2/4) was “increased by dose response of kaempferol” and the “osteoblast … compared with control OKM” value [1] was “increasing osteoblast proliferation with a dose response manner; also recorded: additionally promoted MC 3T3 E1 cell proliferation”. The “osteoblast … compared with control OKM” value ([1]; listed as kaempferol) was “significantly increased compared with that in the control OKM”, the “quantity of BMPR II on OK cells (Western blot)” value (BMPR II; Western blot with anti-BMPR II) was “increased the quantity of BMPR II on OK cells” and the “density of BMPR II on OK cells (immunostain)” value (BMPR II; immunostain with anti-BMP receptor II) was “increased the density of BMPR II on OK cells”. For the same molecule, the “fibroblast (HHF) proliferation in control medium (CM) or fresh medium containing compound” value [4] was “did not increase human fibroblast proliferation; also recorded: did not promote MC 3T3 E1 and HHF cell proliferation”, the “fibroblast proliferation” value [2] was “also did not promote HHF cell proliferation” and the “quantity of P63 in OKM” value (P63) was “increased with dose response of kaempferol; also recorded: also increased with the dose of kaempferol”. For the same molecule, the “MC 3T3 E1 proliferation in kaempferol conditioned HKM compared with 0HKM” value [5] was “increased the promotion; also recorded: additionally increases the promotion”, the “OK cell proliferation (optic density)” value (opossum kidney (OK) cell) was “only increased OK cell proliferation” and the “OK cell proliferation (optic density)” value (opossum kidney (OK) cell; listed as kaempferol) was “significantly increased; also recorded: showed dose response aspect”. The “quantity of BMP7 in OKM” value (BMP7) was “increased by dose response of kaempferol; also recorded: increased in dose response to kaempferol concentration”.

In the case of `COc1c(-c2ccc(O)cc2)oc2cc(O)cc(O)c2c1=O` [isokaempferol, kaempferol-3-methyl ether], the “osteoblast … compared with control OKM” value [1] is reported as “did not increase osteoblast proliferation”, the “fibroblast proliferation” value [2] is reported as “do not increase human heard fibroblast proliferation” and the “OK cell proliferation (optic density)” value (opossum kidney (OK) cell) is reported as “did not increase OK cell proliferation”. The “OK cell proliferation (optic density)” value (opossum kidney (OK) cell; listed as kaempferol-3-methyl ether) was “showed no effect”.

B1: BMP-7: Bone Morphogenic Protein 7, secreted protein (protein, UniProt P18075 293-431, looked up)
Bone morphogenetic protein 7: STGSKQRSQNRSKTPKNQEALRMANVAENSSSDQRQACKKHELYVSFRDLGWQDWIIAPEGYAAYYCEGECAFPLNSYMNATNHAIVQTLVHFINPETVPKPCCAPTQLNAISVLYFDDSSNVILKKYRNMVVRACGCH
In the case of B1, the “effect on osteoporosis associated with renal failure” value [6] is listed as “benefit” and the “prevention of renal failure” value [7] is listed as “prevent renal failure”.
